Patent publication US20240018123A1, “COMPOUND FOR INHIBITING OR DISINTEGRATING ANDROGEN RECEPTOR, AND PHARMACEUTICAL USE THEREOF” (KOREA RESEARCH INSTITUTE OF CHEMICAL TECHNOLOGY, priority 2020, published 2024)

Experiments:
Androgen receptor (AR) = molecular target: T1, Androgen receptor (AR) (Homo sapiens, UniProt P10275, T878A); assay: Assessment of AR proteolytic activity (Western blotting of LNCap cell lysates); assay type: cell-based; conditions: 24 hours of treatment, Western blotting quantified with Image J
T1 construct: 5.5×10^5 LNCap cells were injected into each well of a 6-well plate; endogenous in cells; host or cells: LNCaP
T1 sequence (P10275 1-920 T878A): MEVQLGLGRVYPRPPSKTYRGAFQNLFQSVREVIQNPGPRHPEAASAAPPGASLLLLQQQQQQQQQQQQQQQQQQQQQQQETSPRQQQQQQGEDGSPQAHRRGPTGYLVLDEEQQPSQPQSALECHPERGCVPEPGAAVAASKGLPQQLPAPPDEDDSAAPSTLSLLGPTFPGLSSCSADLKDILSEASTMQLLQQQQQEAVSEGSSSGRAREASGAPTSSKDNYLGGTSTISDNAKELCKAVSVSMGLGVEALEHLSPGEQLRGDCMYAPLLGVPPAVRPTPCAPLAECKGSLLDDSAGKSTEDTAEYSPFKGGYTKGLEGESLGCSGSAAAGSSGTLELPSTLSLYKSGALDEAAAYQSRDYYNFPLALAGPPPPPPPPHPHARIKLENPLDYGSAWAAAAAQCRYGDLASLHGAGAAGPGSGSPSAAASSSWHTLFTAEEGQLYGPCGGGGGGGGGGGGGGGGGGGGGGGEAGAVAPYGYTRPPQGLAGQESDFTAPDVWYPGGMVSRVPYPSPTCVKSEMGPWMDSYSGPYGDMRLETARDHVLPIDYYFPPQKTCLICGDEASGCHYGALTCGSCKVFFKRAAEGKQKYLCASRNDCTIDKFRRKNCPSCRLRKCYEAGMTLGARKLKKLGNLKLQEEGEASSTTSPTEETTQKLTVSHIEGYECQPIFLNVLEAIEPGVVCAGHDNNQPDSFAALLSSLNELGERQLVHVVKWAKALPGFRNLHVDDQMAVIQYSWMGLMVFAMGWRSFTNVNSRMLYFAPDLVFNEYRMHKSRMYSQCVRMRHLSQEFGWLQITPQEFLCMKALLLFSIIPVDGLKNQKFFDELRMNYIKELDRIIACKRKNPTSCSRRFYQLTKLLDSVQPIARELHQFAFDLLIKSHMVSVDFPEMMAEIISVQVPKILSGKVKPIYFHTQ
Method in brief: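 AR degradation read by Western blot densitometry on RIPA lysates (pH 7.5, protease inhibitor cocktail). Lysates came from LNCap cells, 5.5×10^5 per well, exposed to compound for 24 hours.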

| SMILES | Degradation (1 μM treated in LNCaP, % AR remaining) (Androgen receptor (AR)) | CC50 (VCaP cells) |
| --- | --- | --- |
| CC1(C)C(NC(=O)c2ccc(N3CCN(C=C4CCN(C(=O)C5CN(c6ccc7nnn(C8CCC(=O)NC8=O)c(=O)c7c6)C5)CC4)CC3)cc2)C(C)(C)C1Oc1ccc(C#N)c(Cl)c1 (stereo not drawn) [Example 66, N-((1r,3r)-3-(3-chloro-4-cyanophenoxy)-2,2,4,4-tetramethylcyclobutyl)-4-(4-((1-(1-(3-(2,6-dioxopiperidin-3-yl)-4-oxo-3,4-dihydrobenzo[d][1,2,3]triazin-6-yl)azetidine-3-carbonyl)piperidin-4-ylidene)methyl)piperazin-1-yl)benzamide] | 35% | 18.2 nM |
| CC1(C)[C@H](NC(=O)c2ccc(N3CC4CC3CN4CC3CCN(C(=O)C4CN(c5ccc6nnn(C7CCC(=O)NC7=O)c(=O)c6c5)C4)CC3)cc2)C(C)(C)[C@H]1Oc1ccc(C#N)c(Cl)c1 (stereo partly drawn) [Example 73, N-((1r,3r)-3-(3-chloro-4-cyanophenoxy)-2,2,4,4-tetramethylcyclobutyl)-4-(5-((1-(1-(3-(2,6-dioxopiperidin-3-yl)-4-oxo-3,4-dihydrobenzo[d][1,2,3]triazin-6-yl)azetidine-3-carbonyl)piperidin-4-yl)methyl)-2,5-diazabicyclo[2.2.1]heptan-2-yl)benzamide] | 40% | 79.5 nM |
| CC1(C)C(NC(=O)c2ccc(C3CCN(CCOC4CCN(C(=O)C5CN(c6ccc7nnn(C8CCC(=O)NC8=O)c(=O)c7c6)C5)CC4)CC3)cc2)C(C)(C)C1Oc1ccc(C#N)c(Cl)c1 (stereo not drawn) [Example 75, N-((1r,3r)-3-(3-chloro-4-cyanophenoxy)-2,2,4,4-tetramethylcyclobutyl)-4-(1-(2-((1-(1-(3-(2,6-dioxopiperidin-3-yl)-4-oxo-3,4-dihydrobenzo[d][1,2,3]triazin-6-yl)azetidine-3-carbonyl)piperidin-4-yl)oxy)ethyl)piperidin-4-yl)benzamide] | 9% | 30.1 nM |
| CC1(C)C(NC(=O)c2ccc(C3CCN(CCOC4CCN(c5ccc6nnn(C7CCC(=O)NC7=O)c(=O)c6c5)CC4)CC3)cc2)C(C)(C)C1Oc1ccc(C#N)c(Cl)c1 (stereo not drawn) [Example 76, N-((1r,3r)-3-(3-chloro-4-cyanophenoxy)-2,2,4,4-tetramethylcyclobutyl)-4-(1-(2-((1-(3-(2,6-dioxopiperidin-3-yl)-4-oxo-3,4-dihydrobenzo[d][1,2,3]triazin-6-yl)piperidin-4-yl)oxy)ethyl)piperidin-4-yl)benzamide] | 30% | 35 nM |
| [C-]#[N+]c1ccc(OC2C(C)(C)C(NC(=O)c3ccc(N4CCN(CCc5cn(-c6ccc7nnn(C8CCC(=O)NC8=O)c(=O)c7c6)nn5)CC4)cc3)C2(C)C)cc1Cl (stereo not drawn) [Example 77, N-((1r,3r)-3-(3-chloro-4-isocyanophenoxy)-2,2,4,4-tetramethylcyclobutyl)-4-(4-(2-(1-(3-(2,6-dioxopiperidin-3-yl)-4-oxo-3,4-dihydrobenzo[d][1,2,3]triazin-6-yl)-1H-1,2,3-triazol-4-yl)ethyl)piperazin-1-yl)benzamide] | 74% | 46.6 nM |
| CC1(C)C(NC(=O)c2ccc(C#CCC3CCN(c4ccc5nnn(C6CCC(=O)NC6=O)c(=O)c5c4)CC3)cc2)C(C)(C)C1Oc1ccc(C#N)c(Cl)c1 (stereo not drawn) [Example 85, N-((1r,3r)-3-(3-chloro-4-cyanophenoxy)-2,2,4,4-tetramethylcyclobutyl)-4-(3-(1-(3-(2,6-dioxopiperidin-3-yl)-4-oxo-3,4-dihydrobenzo[d][1,2,3]triazin-6-yl)piperidin-4-yl)prop-1-yn-1-yl)benzamide] | 21% | 171 nM |
| CC1(C)C(NC(=O)c2ccc(C#CCC3CCN(C(=O)C4CN(c5ccc6nnn(C7CCC(=O)NC7=O)c(=O)c6c5)C4)CC3)cc2)C(C)(C)C1Oc1ccc(C#N)c(Cl)c1 (stereo not drawn) [Example 87, N-((1r,3r)-3-(3-chloro-4-cyanophenoxy)-2,2,4,4-tetramethylcyclobutyl)-4-(3-(1-(1-(3-(2,6-dioxopiperidin-3-yl)-4-oxo-3,4-dihydrobenzo[d][1,2,3]triazin-6-yl)azetidine-3-carbonyl)piperidin-4-yl)prop-1-yn-1-yl)benzamide] | 9% | 31.9 nM |

Further lines, with some results ahead:

| Degradation (1 μM treated in LNCaP, % AR remaining) (Androgen receptor (AR)) | SMILES | CC50 (VCaP cells) |
| --- | --- | --- |
| 56% | CC1(C)C(NC(=O)c2ccc(N3CCN(C=C4CCN(c5ccc6nnn(C7CCC(=O)NC7=O)c(=O)c6c5)CC4)CC3)cc2)C(C)(C)C1Oc1ccc(C#N)c(Cl)c1 (stereo not drawn) [Example 64, N-((1r,3r)-3-(3-chloro-4-cyanophenoxy)-2,2,4,4-tetramethylcyclobutyl)-4-(4-((1-(3-(2,6-dioxopiperidin-3-yl)-4-oxo-3,4-dihydrobenzo[d][1,2,3]triazin-6-yl)piperidin-4-ylidene)methyl)piperazin-1-yl)benzamide] | 76.2 nM |
| 88% | CC1(C)[C@H](NC(=O)c2ccc(N3CCN(CC4CCN(CC5CN(c6ccc7nnn(C8CCC(=O)NC8=O)c(=O)c7c6)C5)CC4)CC3)cc2)C(C)(C)[C@H]1Oc1ccc(C#N)c(Cl)c1 (stereo partly drawn) [Example 67, N-((1r,3r)-3-(3-chloro-4-cyanophenoxy)-2,2,4,4-tetramethylcyclobutyl)-4-(4-((1-((1-(3-(2,6-dioxopiperidin-3-yl)-4-oxo-3,4-dihydrobenzo[d][1,2,3]triazin-6-yl)azetidin-3-yl)methyl)piperidin-4-yl)methyl)piperazin-1-yl)benzamide] | 106 nM |
| 99% | CC1(C)C(NC(=O)c2ccc(N3CCN(CC4CCN(CC5CCN(c6ccc7nnn(C8CCC(=O)NC8=O)c(=O)c7c6)CC5)CC4)CC3)cc2)C(C)(C)C1Oc1ccc(C#N)c(Cl)c1 (stereo not drawn) [Example 70, N-((1r,3r)-3-(3-chloro-4-cyanophenoxy)-2,2,4,4-tetramethylcyclobutyl)-4-(4-((1-((1-(3-(2,6-dioxopiperidin-3-yl)-4-oxo-3,4-dihydrobenzo[d][1,2,3]triazin-6-yl)piperidin-4-yl)methyl)piperidin-4-yl)methyl)piperazin-1-yl)benzamide] | 205 nM |
| 92% | CC1(C)C(NC(=O)c2ccc(N3CC4CC3CN4CC3CCN(c4ccc5nnn(C6CCC(=O)NC6=O)c(=O)c5c4)CC3)cc2)C(C)(C)C1Oc1ccc(C#N)c(Cl)c1 (stereo not drawn) [Example 72, N-((1r,3r)-3-(3-chloro-4-cyanophenoxy)-2,2,4,4-tetramethylcyclobutyl)-4-(5-((1-(3-(2,6-dioxopiperidin-3-yl)-4-oxo-3,4-dihydrobenzo[d][1,2,3]triazin-6-yl)piperidin-4-yl)methyl)-2,5-diazabicyclo[2.2.1]heptan-2-yl)benzamide] | 263 nM |
| 18% | CC1(C)C(NC(=O)c2ccc(-c3cnn(C4CCN(CC5CCN(c6ccc7nnn(C8CCC(=O)NC8=O)c(=O)c7c6)CC5)CC4)c3)cc2)C(C)(C)C1Oc1ccc(C#N)c(Cl)c1 (stereo not drawn) [Example 84, N-((1r,3r)-3-(3-chloro-4-cyanophenoxy)-2,2,4,4-tetramethylcyclobutyl)-4-(1-(1-((1-(3-(2,6-dioxopiperidin-3-yl)-4-oxo-3,4-dihydrobenzo[d][1,2,3]triazin-6-yl)piperidin-4-yl)methyl)piperidin-4-yl)-1H-pyrazol-4-yl)benzamide] | 15.4 nM |
